Data from patent US20060257484A1, “Combination of tramadol and substances that comprise gabapentin” (priority 2005, published 2006).
Where a name gives a salt, the structure may show the parent alone. Read-outs that look alike come from different tables or passages of the source.

What was measured:
[1] = Expected pharmacokinetic parameters in rat after tramadol HCl plus gabapentin (model)
Text: In another modeling approach, the dose of gabapentin for humans can be evaluated in order to match the AUCinf ratio for gabapentin to tramadol and O-demthyltramadol in rat.

[2] = Expected human pharmacokinetic parameters at 200 mg tramadol per day (model matching rat AUCinf ratio); assay type: in vivo; settings: 200 mg tramadol per day for humans; for expected Cavg: gabapentin at 6.77 fold AUC ratio (daily dose 505 mg gabapentin equivalent)
Text: Additional ranges can be determined for other species.

[3] = single oral dose 10 mg/kg tramadol HCl, 8 male Sprague-Dawley rats, cited from earlier work
[4] = steady state, cited from earlier work
[5] = test system: Chung model; settings: Chung model disclosed in Codd; cited from earlier work
[6] = cited from earlier work
[7] = higher doses increase less than expected; cited from earlier work
[8] = single oral dose 25 mg/kg gabapentin, 6 male Sprague-Dawley rats; cited from earlier work
[9] = single administration of 10 mg/kg tramadol HCl and 5 mg/kg gabapentin, assuming no pharmacokinetic interaction
[10] = Immediate Release Capsule, 50 mg four times daily
[11] = Modified Release Formulation, 200 mg once daily
[12] = after five days of tramadol 100 mg twice daily

In the case of `CN(C)CC1CCCCC1(O)c1cccc(O)c1` (racemic) [(±) M1, trans-O-demethyltramadol], the “expected AUCinf” value [1, 9] is reported as 0.523 µg·h/mL and the “expected Cmax” value [1, 9] is reported as 0.331 µg/mL.
With `CN(C)CC1CCCCC1(O)c1cccc(O)c1` (single isomer, unassigned; (+)) [(+) M1, trans-O-demethyltramadol] the “expected Cmax” value [2] was 0.036 µg/mL, the “expected Cmin” value [2] was 0.021 µg/mL and the “expected Cavg” value [2] was 0.011 µg/mL. For the same molecule, the AUCinf ([3]; 10 mg/kg) was 16242 (2648) μg L^−1 min, the Cmax ([3]; 10 mg/kg) was 136 (32) μg/L and the Tmax ([3]; 10 mg/kg) was 34 (21) min. For the same molecule, the AUC0-24 [4, 10] was 644 ng·h/mL, the Cmax [4, 10] was 36 ng/mL and the Cmin [4, 10] was 21 ng/mL. The AUC0-24 [4, 11] was 704.12 (327.09) ng * h/ml, the Cmax [4, 11] was 42 (18.4) ng/mL and the Cmin [4, 11] was 16.71 (10.41) ng/mL.
For `COc1cccc(C2(O)CCCCC2CN(C)C)c1` (stereo not shown) [tramadol HCl], the ED50 [5] is given as 94.47 mg/kg.
In the case of `COc1cccc(C2(O)CCCCC2CN(C)C)c1` (racemic) [tramadol], the “AUC0-12 at steady state” value [6, 12] is listed as 2970 µg·h/L, the “Cmax at steady state” value [6, 12] is listed as 414 µg/L and the “Cmax and AUCinf versus dose” value ([6]; tramadol 400 mg given) is listed as “proportional to the dose”.
In the case of `COc1cccc(C2(O)CCCCC2CN(C)C)c1` (single isomer, unassigned; (-)) [(−)-trans-T], the “expected Cmax” value [2] is reported as 0.157 µg/mL, the “expected Cmin” value [2] is reported as 0.086 µg/mL and the “expected Cavg” value [2] is reported as 0.113 µg/mL. The AUCinf [3] was 5257 µg·min/L, the Cmax [3] was 74 µg/L and the Tmax [3] was 22 min. The AUC0-24 [4, 10] was 2719 ng·h/mL, the Cmax [4, 10] was 157 ng/mL and the Cmin [4, 10] was 86 ng/mL. For the same molecule, the AUC0-24 [4, 11] was 3005 (1120) ng * h/ml, the Cmax [4, 11] was 199 (75) ng/mL and the Cmin [4, 11] was 62 (30) ng/mL.
For `NCC1(CC(=O)O)CCCCC1` [Gabapentin, gabapentin], the “dose up to which serum concentrations increase linearly” value [7] is given as “up to 1800 mg/d”, the “AUCinf for gabapentin relative to that for (±) tramadol and (±) O-demthyltramadol” value ([1]; Chung model (rat)) is given as 6.77 fold and the AUCinf [8] is given as 32.8 µg·h/mL. The Cmax [8] was 6.85 µg/mL, the Tmax [8] was 1.8 h and the “expected Cavg” value [2] was 1.89 µg/mL. For the same molecule, the ED50 [5] was 439.50 mg/kg.
With `CN(C)CC1CCCCC1(O)c1cccc(O)c1` (single isomer, unassigned; (-)) [(−) M1, trans-O-demethyltramadol] the “expected Cmax” value [2] was 0.043 µg/mL, the “expected Cmin” value [2] was 0.022 µg/mL and the “expected Cavg” value [2] was 0.012 µg/mL. For the same molecule, the AUCinf ([3]; 10 mg/kg) was 21178 (1987) μg L^−1 min, the Cmax ([3]; 10 mg/kg) was 195 (63) μg/L and the Tmax ([3]; 10 mg/kg) was 41 (24) min. The AUC0-24 [4, 10] was 690 ng·h/mL, the Cmax [4, 10] was 43 ng/mL and the Cmin [4, 10] was 22 ng/mL. For the same molecule, the AUC0-24 [4, 11] was 745 (286) ng * h/ml, the Cmax [4, 11] was 46 (18) ng/mL and the Cmin [4, 11] was 16 (8) ng/mL.
In the case of `COc1cccc([C@@]2(O)CCCC[C@@H]2CN(C)C)c1` [(+)-trans-T], the “expected Cmax” value [2] is reported as 0.190 µg/mL, the “expected Cmin” value [2] is reported as 0.111 µg/mL and the “expected Cavg” value [2] is reported as 0.143 µg/mL. The AUCinf [3] was 21501 µg·min/L, the Cmax [3] was 193 µg/L and the Tmax [3] was 22 min. The AUC0-24 [4, 10] was 3429 ng·h/mL, the Cmax [4, 10] was 190 ng/mL and the Cmin [4, 10] was 111 ng/mL. The AUC0-24 [4, 11] was 3763 (1275) ng * h/ml, the Cmax [4, 11] was 239 (81) ng/mL and the Cmin [4, 11] was 81 (36) ng/mL.
